In ChEMBL document CHEMBL1833908, “Hydrazidomycins, cytotoxic alkylhydrazides from Streptomycesatratus” (Bioorg Med Chem Lett, 2011):

Tests used:
Assay type in all cases: functional, cell-based
[1] = test system: NCI-H460; test: Cytotoxicity against human NCI-H460 cells by propidium iodide staining
[2] = Cytotoxicity against human CXF 269L cells by propidium iodide staining
[3] = Cytotoxicity against human BXF 1352L cells by propidium iodide staining
[4] = test system: DU-145; test: Cytotoxicity against human DU145 cells by propidium iodide staining
[5] = test system: MKN-45; test: Cytotoxicity against human MKN45 cells by propidium iodide staining
[6] = test system: PANC-1; test: Cytotoxicity against human PANC1 cells by propidium iodide staining
[7] = Cytotoxicity against human RXF 486L cells by propidium iodide staining
[8] = Cytotoxicity against human PXF 1118L cells by propidium iodide staining
[9] = Cytotoxicity against human PAXF 546L cells by propidium iodide staining
[10] = Cytotoxicity against human RXF 1781L cells by propidium iodide staining
[11] = Cytotoxicity against human LXFA 289L cells by propidium iodide staining
[12] = Cytotoxicity against human PXF 1752L cells by propidium iodide staining
[13] = Cytotoxicity against human NIH:OVCAR3 cells by propidium iodide staining; conditions: OVCAR-3
[14] = Cytotoxicity against human OVXF 899L cells by propidium iodide staining
[15] = Cytotoxicity against human PXF 698L cells by propidium iodide staining
[16] = test system: HT-29; test: Cytotoxicity against human HT-29 cells by propidium iodide staining
[17] = test system: RKO; test: Cytotoxicity against human RKO cells by propidium iodide staining
[18] = test system: LNCaP; test: Cytotoxicity against human LNCAP cells by propidium iodide staining
[19] = Cytotoxicity against human PC3M cells by propidium iodide staining; conditions: PC-3M
[20] = Cytotoxicity against human MEXF 462NL cells by propidium iodide staining
[21] = Cytotoxicity against human BXF 1218L cells by propidium iodide staining
[22] = Cytotoxicity against human LIXF 575L cells by propidium iodide staining
[23] = Cytotoxicity against human MEXF 276L cells by propidium iodide staining; conditions: MEXF276L
[24] = test system: TE-671; test: Cytotoxicity against human TE671 cells by propidium iodide staining
[25] = Cytotoxicity against human RXF 393NL cells by propidium iodide staining
[26] = Cytotoxicity against human MEXF 1341L cells by propidium iodide staining
[27] = Cytotoxicity against human LXFA 526L cells by propidium iodide staining
[28] = test system: HCT-116; test: Cytotoxicity against human HCT116 cells by propidium iodide staining
[29] = test system: MDA-MB-231; test: Cytotoxicity against human MDA-MB-231 cells by propidium iodide staining
[30] = Cytotoxicity against human LXFA 629L cells by propidium iodide staining
[31] = Cytotoxicity against human GXF251L cells by propidium iodide staining; conditions: GXF 251L
[32] = test system: MCF7; test: Cytotoxicity against human MCF7 cells by propidium iodide staining
[33] = test system: CWR22R; test: Cytotoxicity against human 22Rv1 cells by propidium iodide staining
[34] = test system: SAOS-2; test: Cytotoxicity against human Saos2 cells by propidium iodide staining
[35] = test system: CAL-27; test: Cytotoxicity against human CAL27 cells by propidium iodide staining
[36] = Cytotoxicity against human LXFL 529L cells by propidium iodide staining
[37] = Cytotoxicity against human PAXF 1657L cells by propidium iodide staining
[38] = Cytotoxicity against human MAXF 401NL cells by propidium iodide staining
[39] = Cytotoxicity against human UXF 1138L cells by propidium iodide staining
[40] = Cytotoxicity against human LXFL 1121L cells by propidium iodide staining
[41] = Cytotoxicity against human DIFI cells by propidium iodide staining
[42] = test system: T-24; test: Cytotoxicity against human T24 cells by propidium iodide staining

For `CCCCCCCCCCCC/C=C\N(NC(=O)COC)C(=O)CCCCCCCCC` [HYDRAZIDOMYCIN A], the IC50 [1] was 2.31 µM, the IC50 [2] was 0.222 µM and the IC50 [3] was 2.3 µM. The IC50 [4] was 0.539 µM, the IC50 [5] was 0.676 µM and the IC50 [6] was 0.933 µM. It also gave an IC50 [7] of 1.62 µM, an IC50 [8] of 2.4 µM and an IC50 [9] of 0.66 µM. The IC50 [10] was 0.982 µM, the IC50 [11] was 1.1 µM and the IC50 [12] was 1.19 µM. It also gave an IC50 [13] of 1.1 µM, an IC50 [14] of 1.34 µM and an IC50 [15] of 0.982 µM. For the same molecule, the IC50 [16] was 0.464 µM, the IC50 [17] was 0.598 µM and the IC50 [18] was 0.957 µM. The IC50 [19] was 0.105 µM, the IC50 [20] was 0.765 µM and the IC50 [21] was 2.43 µM. It also gave an IC50 [22] of 0.349 µM, an IC50 [23] of 1.59 µM and an IC50 [24] of 0.898 µM. It also gave an IC50 [25] of 1.11 µM, an IC50 [26] of 0.936 µM and an IC50 [27] of 1.65 µM. For the same molecule, the IC50 [28] was 0.758 µM, the IC50 [29] was 0.286 µM and the IC50 [30] was 0.247 µM. For the same molecule, the IC50 [31] was 0.144 µM, the IC50 [32] was 0.782 µM and the IC50 [33] was 0.882 µM. It also gave an IC50 [34] of 1.82 µM, an IC50 [35] of 0.716 µM and an IC50 [36] of 2.12 µM. It also gave an IC50 [37] of 1.91 µM, an IC50 [38] of 0.471 µM and an IC50 [39] of 0.893 µM. For the same molecule, the IC50 [40] was 2.31 µM and the IC50 [41] was 0.782 µM.

`CCCCCCC/C=C\CCCCC/C=C\N(NC(=O)COC)C(=O)CCCCCCCCC` [HYDRAZIDOMYCIN B] showed an IC50 [1] of 17.2 µM, an IC50 [2] of 5.94 µM and an IC50 [3] of 15.1 µM. For the same molecule, the IC50 [4] was 7.22 µM, the IC50 [5] was 11.6 µM and the IC50 [6] was 10 µM. It also gave an IC50 [7] of 21.2 µM, an IC50 [8] of 30 µM and an IC50 [9] of 10.8 µM. The IC50 [10] was 10.2 µM, the IC50 [11] was 12.6 µM and the IC50 [12] was 12.7 µM. It also gave an IC50 [13] of 18.5 µM, an IC50 [14] of 19.1 µM and an IC50 [15] of 14.3 µM. It also gave an IC50 [16] of 6.54 µM, an IC50 [17] of 13.8 µM and an IC50 [18] of 14.1 µM. The IC50 [19] was 1.73 µM, the IC50 [20] was 20.4 µM and the IC50 [21] was 19.3 µM. It also gave an IC50 [22] of 7.39 µM, an IC50 [23] of 18.3 µM and an IC50 [24] of 18.2 µM. It also gave an IC50 [42] of 9.19 µM, an IC50 [25] of 11 µM and an IC50 [26] of 14.9 µM. The IC50 [27] was 7.07 µM, the IC50 [28] was 19.4 µM and the IC50 [29] was 5.53 µM. The IC50 [30] was 1.41 µM, the IC50 [31] was 1.54 µM and the IC50 [32] was 11 µM. It also gave an IC50 [33] of 15.6 µM, an IC50 [34] of 18 µM and an IC50 [35] of 12.7 µM. It also gave an IC50 [36] of 17.3 µM, an IC50 [37] of 20.4 µM and an IC50 [38] of 0.876 µM. It also gave an IC50 [39] of 18.2 µM, an IC50 [40] of 17.4 µM and an IC50 [41] of 10.2 µM.
